Measured values published in patent publication US10450317B2, “Notch pathway signaling inhibitor compounds” (Eli Lilly and Company, priority 2015, dated 2019).

Test system: mAtoh1
Assay: Induction of mAtoh1 expression in otic spheres (qRT-PCR)
Assay type: cell-based, mice
Settings: 7 days, fold-induction relative to DMSO control, ± SEM
Experimental: Generally, organ of Corti cell isolation is carried out on Day 0, largely by the method in Oshima et al., Methods Mol Biol., 2009; 493: 141-162. Cell culture and propagation are carried out for 3-4 days. Cell plating and test compound treatment takes place on Day 3 or 4. Attachment and differentiation is allowed to take place over the next 7 days. On Days 10 or 11, cell lysis and RNA isolation is carried out. TagMan qRT-PCR is carried out on Day 12 and the results analyzed on Days 13-15 for Atoh1 and Tbp1 expression.
Surrounding tissue from the petrous portion of the temporal bone are removed from 1 to 4 day-old postnatal mice (transgenic strain: mAtoh1-driven nGFP; Lumpkin E A, et al., Gene Expr Patterns, 2003; (36): 389-95 of both sexes. The conch shaped cochlea is separated from the vestibular system using forceps. At this stage of development, the bony labyrinth is not completely calcified and is easily dissected using forceps. Carefully open the bony labyrinth of the cochlea and remove the spiral ligament and attached organ of Corti coiled together along the spiral of the modiolus by unwinding apically from the modiolus. Starting at the base, separate the spiral ligament from the organ of Corti using fine forceps.
Transfer the dissected organ of Corti (OC) into individual 1.5 ml tubes filled with 850 ice cold HBSS. Transfer up to 12 OC tissues into the same tube, Quick-spin down OC tissues and remove the HBSS. Disassociate the cells by adding 100 μl pre-warmed TrypLE™ Select (Life Technologies) and incubate at 37° C. for 13 min. Quick spin down dissociated OC tissues. Remove TrypLE™ Select. Add 100 μl of Medium A (DMEM/F12, N2 supplement (LifeTechnologies), B27 supplement (LifeTechnologies), ampicillin (50 μg/ml) and Fungizone (LifeTechnologies), EGF (20 ng/ml), bFGF (10 ng/ml), IGF-1 50 ng/ml), and heparan sulfate (50 ng/ml)). The dissected and digested tissue is then triturated with a P200 pipette tip. Remove any cell aggregates and debris; transfer the cell suspension and wash through a pre-wetted 70 μm cell strainer to pool the cell suspension in a single fresh culture tube. Rinse dissociation tubes and the cell strainer with sufficient Medium A and pool with the cell suspension. Count cell density with hemocytometer or Countess® (Life Technologies). Add fresh Medium A to cell suspension to achieve a final plating density of 1.0E5 cell/ml and plate into ultra-low attachment cultureware, T-75 (Greiner).
The dissociated, single cells are cultured in an ultra-low attachment cultureware, (Greiner) in Medium A for 3 to 4 days in a 5% CO2 humidified incubator at 37° C. to obtain clonally grown spheres, termed first generation spheres, from the floating cells. If cells stick to the non-adherent dishes during the culture period they can be dislodged by gentle mixing.
After culturing the spheres for 3-4 days, visually count the spheres by microscope to standardize the seeding density of otic spheres per ml for this step. Collect the cells by centrifugation and re-suspend spheres in Basic Medium at a concentration of approximately 2000 spheres per ml. Seed the spheres in a volume of 150 μl per well of a cell culture-treated 96 well plate to obtain approximately 300 spheres per well. Treat the spheres with experimental agents in quadruplicate at a final volume of 200 μl in Basic Medium (DMEM/F12, N2 supplement (LifeTechnologies) B27 supplement (LifeTechnologies), ampicillin (50 μg/ml) and Fungizone (LifeTechnologies). Culture the treated spheres for 7 days in a humidified temperature controlled incubator at 5% CO2, 37° C. Remove medium and proceed with RNA extraction.
Add buffer RLT plus (Qiagen) supplemented with 1% Beta-mercaptoethanol, 175 μl per well. Add 2.5 μl of 4 ng/μl of RNA carrier (RNeasy® Plus Micro Kit; Qiagen) diluted in Buffer RLT Plus into each well before RNA extraction. Total RNA is extracted using the RNeasy® Plus Micro Kit (Qiagen) according to the manufacturer's instructions. […]

Structure (SMILES) | RQ at 10 nM (Atoh1 expression) | RQ at 100 nM (Atoh1 expression) | RQ at 1 μM (Atoh1 expression)
C[C@H](NC(=O)CCC(F)(F)F)C(=O)NC1C(=O)C=C2N(CCC2(C)C)c2ncccc21 (single isomer, unassigned) [Compound 2, Isomer 2] | 1.14 ± 0.07 | 1.21 ± 0.13 | 1.57 ± 0.11
COc1ccc2c(c1)N1CCC(C)(C)C1=CC(=O)C2NC(=O)[C@H](C)NC(=O)CCC(F)(F)F (single isomer, unassigned) [Compound 1, Isomer 2] | 1.43 ± 0.17 | 1.76 ± 0.17 | 1.64 ± 0.13
